Source: ChEMBL document CHEMBL5055675, “Apoptosis Inducing 1,3,4-Oxadiazole Conjugates of Capsaicin: Their In Vitro Antiproliferative and In Silico Studies” (ACS Med Chem Lett, 2021)
pIC50: −log10 of the molar value.

Tests used:
Assay type in all cases: functional
HCC 2998 = assay: Antiproliferative activity against human HCC 2998 cells assessed as cell growth at 10 uM incubated for 48 hrs by sulforhodamine B assay relative to control; details: read-out: Activity
NCI-H23 = assay: Antiproliferative activity against human NCI-H23 cells assessed as cell growth at 10 uM incubated for 48 hrs by sulforhodamine B assay relative to control; details: read-out: Activity
NCI-H322M = assay: Antiproliferative activity against human NCI-H322M cells assessed as cell growth at 10 uM incubated for 48 hrs by sulforhodamine B assay relative to control; details: read-out: Activity
SK-MEL-5 = assay: Antiproliferative activity against human SK-MEL-5 cells assessed as cell growth at 10 uM incubated for 48 hrs by sulforhodamine B assay relative to control; details: read-out: Activity
UACC-62 = assay: Antiproliferative activity against human UACC-62 cells assessed as cell growth at 10 uM incubated for 48 hrs by sulforhodamine B assay relative to control; details: read-out: Activity
KM12 = assay: Antiproliferative activity against human KM12 cells assessed as cell growth at 10 uM incubated for 48 hrs by sulforhodamine B assay relative to control; details: read-out: Activity
OVCAR-3 = assay: Antiproliferative activity against human OVCAR-3 cells assessed as cell growth at 10 uM incubated for 48 hrs by sulforhodamine B assay relative to control; details: read-out: Activity
HCT-15 = assay: Antiproliferative activity against human HCT-15 cells assessed as cell growth at 10 uM incubated for 48 hrs by sulforhodamine B assay relative to control; details: read-out: Activity
HL-60(TB) = assay: Antiproliferative activity against human HL-60 (TB) cells assessed as cell growth at 10 uM incubated for 48 hrs by sulforhodamine B assay relative to control; details: read-out: Activity
BT-549 = assay: Antiproliferative activity against human BT-549 cells assessed as cell growth at 10 uM incubated for 48 hrs by sulforhodamine B assay relative to control; details: read-out: Activity
SK-OV-3 [1] = assay: Antiproliferative activity against human SK-OV-3 cells assessed as cell growth at 10 uM incubated for 48 hrs by sulforhodamine B assay relative to control; details: read-out: Activity
OVCAR-5 = assay: Antiproliferative activity against human OVCAR-5 cells assessed as cell growth at 10 uM incubated for 48 hrs by sulforhodamine B assay relative to control; details: read-out: Activity
UO-31 = assay: Antiproliferative activity against human UO-31 cells assessed as cell growth at 10 uM incubated for 48 hrs by sulforhodamine B assay relative to control; details: read-out: Activity
NCI-H522 = assay: Antiproliferative activity against human NCI-H522 cells assessed as cell growth at 10 uM incubated for 48 hrs by sulforhodamine B assay relative to control; details: read-out: Activity
NCI/ADR-RES = assay: Antiproliferative activity against human NCI/ADR-RES cells assessed as cell growth at 10 uM incubated for 48 hrs by sulforhodamine B assay relative to control; details: read-out: Activity
MDA-MB-231 = assay: Antiproliferative activity against human MDA-MB-231/ATCC cells assessed as cell growth at 10 uM incubated for 48 hrs by sulforhodamine B assay relative to control; details: read-out: Activity
SR = assay: Antiproliferative activity against human SR cells assessed as cell growth at 10 uM incubated for 48 hrs by sulforhodamine B assay relative to control; details: read-out: Activity
SNB-19 = assay: Antiproliferative activity against human SNB-19 cells assessed as cell growth at 10 uM incubated for 48 hrs by sulforhodamine B assay relative to control; details: read-out: Activity
SK-MEL-28 = assay: Antiproliferative activity against human SK-MEL-28 cells assessed as cell growth at 10 uM incubated for 48 hrs by sulforhodamine B assay relative to control; details: read-out: Activity
LOX IMVI = assay: Antiproliferative activity against human LOX IMVI cells assessed as cell growth at 10 uM incubated for 48 hrs by sulforhodamine B assay relative to control; details: read-out: Activity
EKVX = assay: Antiproliferative activity against human EKVX cells assessed as cell growth at 10 uM incubated for 48 hrs by sulforhodamine B assay relative to control; details: read-out: Activity
NCI-H226 = assay: Antiproliferative activity against human NCI-H226 cells assessed as cell growth at 10 uM incubated for 48 hrs by sulforhodamine B assay relative to control; details: read-out: Activity
COLO 205 = assay: Antiproliferative activity against human COLO 205 cells assessed as cell growth at 10 uM incubated for 48 hrs by sulforhodamine B assay relative to control; details: read-out: Activity
ACHN = assay: Antiproliferative activity against human ACHN cells assessed as cell growth at 10 uM incubated for 48 hrs by sulforhodamine B assay relative to control; details: read-out: Activity
TK-10 = assay: Antiproliferative activity against human TK-10 cells assessed as cell growth at 10 uM incubated for 48 hrs by sulforhodamine B assay relative to control; details: read-out: Activity
SF-295 = assay: Antiproliferative activity against human SF-295 cells assessed as cell growth at 10 uM incubated for 48 hrs by sulforhodamine B assay relative to control; details: read-out: Activity
CCRF-CEM = assay: Antiproliferative activity against human CCRF-CEM cells assessed as cell growth at 10 uM incubated for 48 hrs by sulforhodamine B assay relative to control; details: read-out: Activity
HOP-62 = assay: Antiproliferative activity against human HOP-62 cells assessed as cell growth at 10 uM incubated for 48 hrs by sulforhodamine B assay relative to control; details: read-out: Activity
T47D = assay: Antiproliferative activity against human T47D cells assessed as cell growth at 10 uM incubated for 48 hrs by sulforhodamine B assay relative to control; details: read-out: Activity
HCT-116 [2] = assay: Antiproliferative activity against human HCT-116 cells assessed as cell growth at 10 uM incubated for 48 hrs by sulforhodamine B assay relative to control; details: read-out: Activity
IGROV-1 = assay: Antiproliferative activity against human IGROV-1 cells assessed as cell growth at 10 uM incubated for 48 hrs by sulforhodamine B assay relative to control; details: read-out: Activity
MDA-MB-468 = assay: Antiproliferative activity against human MDA-MB-468 cells assessed as cell growth at 10 uM incubated for 48 hrs by sulforhodamine B assay relative to control; details: read-out: Activity
786-0 = assay: Antiproliferative activity against human 786-0 cells assessed as cell growth at 10 uM incubated for 48 hrs by sulforhodamine B assay relative to control; details: read-out: Activity
RPMI-8226 = assay: Antiproliferative activity against human RPMI-8226 cells assessed as cell growth at 10 uM incubated for 48 hrs by sulforhodamine B assay relative to control; details: read-out: Activity
SF-539 = assay: Antiproliferative activity against human SF-539 cells assessed as cell growth at 10 uM incubated for 48 hrs by sulforhodamine B assay relative to control; details: read-out: Activity
A498 = assay: Antiproliferative activity against human A498 cells assessed as cell growth at 10 uM incubated for 48 hrs by sulforhodamine B assay relative to control; details: read-out: Activity
SK-OV-3 [3] = assay: Antiproliferative activity against human SK-OV-3 cells assessed as cell growth inhibition measured after 72 hrs by crystal violet staining based assay; details: SK-OV-3, 72 h
NCI-H460 = assay: Antiproliferative activity against human NCI-H460 cells assessed as cell growth inhibition measured after 72 hrs by crystal violet staining based assay; details: NCI-H460, 72 h
HCT-116 [4] = assay: Antiproliferative activity against human HCT-116 cells assessed as cell growth inhibition measured after 72 hrs by crystal violet staining based assay; details: HCT-116, 72 h

SMILES | growth at 10 µM (HCC 2998) | growth at 10 µM (NCI-H23) | growth at 10 µM (NCI-H322M) | growth at 10 µM (SK-MEL-5) | growth at 10 µM (UACC-62) | growth at 10 µM (KM12) | growth at 10 µM (OVCAR-3) | growth at 10 µM (HCT-15) | growth at 10 µM (HL-60(TB)) | growth at 10 µM (BT-549) | growth at 10 µM (SK-OV-3 [1]) | growth at 10 µM (OVCAR-5) | growth at 10 µM (UO-31) | growth at 10 µM (NCI-H522) | growth at 10 µM (NCI/ADR-RES) | growth at 10 µM (MDA-MB-231) | growth at 10 µM (SR) | growth at 10 µM (SNB-19) | growth at 10 µM (SK-MEL-28) | growth at 10 µM (LOX IMVI) | further results
COc1cc(CNC(=O)CCCC/C=C/C(C)C)ccc1OCc1nnc(Nc2cccc(Br)c2)o1 | 101% | 66% | 98% | 89.8% | 67.5% | 90.3% | 88% | 90.2% | 79.8% | 76.4% | 82.6% | 91.1% | 64% | 68.6% | 87% | 78.3% | 67.7% | 99.5% | 107% | 88.9% | growth at 10 µM (EKVX): 78.1%; growth at 10 µM (NCI-H226): 50.4%; growth at 10 µM (COLO 205): 110%; growth at 10 µM (ACHN): 85.1%; growth at 10 µM (TK-10): 104%; growth at 10 µM (SF-295): 84.2%; growth at 10 µM (CCRF-CEM): 81.8%; growth at 10 µM (HOP-62): 75.6%; growth at 10 µM (T47D): 58.9%; growth at 10 µM (HCT-116 [2]): 67.6%; growth at 10 µM (IGROV-1): 92.9%; growth at 10 µM (MDA-MB-468): 48.1%; growth at 10 µM (786-0): 95.6%; growth at 10 µM (RPMI-8226): 70.3%; growth at 10 µM (SF-539): 88.4%; growth at 10 µM (A498): 77.8%
COc1cc(CNC(=O)CCCC/C=C/C(C)C)ccc1OCc1nnc(Nc2ccccc2F)o1 | 90.8% | 63.8% | 86.1% | 86.6% | 65.5% | 78.8% | 68.3% | 90.1% | 89.7% | 77% | 48.6% | 77.7% | 52.8% | 60.3% | 43.4% | 63.9% | 67.3% | 58.5% | 85.2% | 83.4% | pIC50 (SK-OV-3 [3]): 4.90; pIC50 (NCI-H460): 4.84; pIC50 (HCT-116 [4]): 4.98; growth at 10 µM (EKVX): 77.1%; growth at 10 µM (NCI-H226): 64.5%; growth at 10 µM (COLO 205): 104%; growth at 10 µM (ACHN): 56%; growth at 10 µM (TK-10): 97.7%; growth at 10 µM (SF-295): 48%; growth at 10 µM (CCRF-CEM): 83%; growth at 10 µM (HOP-62): 56.4%; growth at 10 µM (T47D): 65%; growth at 10 µM (HCT-116 [2]): 53.5%; growth at 10 µM (IGROV-1): 58.4%; growth at 10 µM (MDA-MB-468): 58.9%; growth at 10 µM (786-0): 12%; growth at 10 µM (RPMI-8226): 64.9%; growth at 10 µM (SF-539): 48.2%; growth at 10 µM (A498): 92.5%
COc1cc(CNC(=O)CCCC/C=C/C(C)C)ccc1OCc1nnc(SCCc2c[nH]c3ccccc23)o1 | 98% | 66.6% | 88.7% | 105% | 67.5% | 73.3% | 88.3% | 68.6% | 50.2% | 75% | 85.7% | 102% | 45% | 59.4% | 56.5% | 70.6% | 49.3% | 77% | 104% | 55.2% | pIC50 (SK-OV-3 [3]): 4.50; pIC50 (NCI-H460): 5.00; pIC50 (HCT-116 [4]): 4.87; growth at 10 µM (EKVX): 57.4%; growth at 10 µM (NCI-H226): 67.2%; growth at 10 µM (COLO 205): 71.2%; growth at 10 µM (ACHN): 76.5%; growth at 10 µM (TK-10): 91.7%; growth at 10 µM (SF-295): 68.8%; growth at 10 µM (CCRF-CEM): 34.7%; growth at 10 µM (HOP-62): 92.8%; growth at 10 µM (T47D): 43%; growth at 10 µM (HCT-116 [2]): 70%; growth at 10 µM (IGROV-1): 73.7%; growth at 10 µM (MDA-MB-468): 51.8%; growth at 10 µM (786-0): 89.3%; growth at 10 µM (SF-539): 80.8%; growth at 10 µM (A498): 73.3%
